From paper PMC5298231, “The Malaria Parasite's Lactate Transporter PfFNT Is the Target of Antiplasmodial Compounds Identified in Whole Cell Phenotypic Screens” (PLoS Pathogens, 2017)

System: erythrocytes infected with 3D7 trophozoites
Assay type: cell-based, Plasmodium falciparum

## COc1ccc2c(c1)OC(O)(C(F)(F)C(F)(F)F)CC2=O (stereo not shown) [MMV007839]
6hr
  HLD, Average: 0.5581
  HVDD, Average: 0.02571
  Histidine, Average: 1.263
  Homoserine, Average: 0.6347
  Hydroxy-L-proline, Average: -0.1227
  Hypoxanthine, Average: 0.2056
  IDP, Average: 0.2522
  IMP, Average: -0.2109
  Inosine, Average: 0.5174
  Isoleucine, Average: 0.1143
  LD, Average: 0.1248
  Lactate, Average: 2.505
  Leucine, Average: 0.06585
  Lysine, Average: 1.1316
  Malate, Average: -0.236
  Mannitol, Average: -0.1109
  Methionine, Average: -0.2224
  Myristic acid, Average: -0.7184
  N-Acetyl-glutamate, Average: -1.091
  N-Carbamoyl-L-Aspartate, Average: -1.386
  NAD+, Average: 0.1336
  NADH, Average: -2.783
  NADP+, Average: -0.3285
  Ornithine, Average: -0.4177
  Orotate, Average: -1.6355
  Orotidine 5-Phosphate, Average: -1.249
  Orotidine, Average: -0.6749
  PAEF, Average: 0.8061
  PD, Average: 1.197
  PDAV, Average: 1.2
  PE, Average: 1.699
  PEE, Average: 1.042
  PHF, Average: 0.9826
  PPVQ, Average: -0.2514
  PVNF, Average: 0.6194
  PVQ, Average: 1.502
  PVQA, Average: -0.1116
  Pantothenate, Average: -0.4384
  Phenylalanine, Average: 0.1437
  Phosphoenolpyruvate, Average: 0.09862
  Pipecolate, Average: 1.035
  Proline, Average: 0.2232
  Pyridoxine, Average: 0.219
  Pyruvate, Average: 2.1785
  Ribose-5-Phosphate, Average: 0.5462
  S-Adenosyl-L-homocysteine, Average: -0.1116
  SDGLA, Average: -0.7918
  SFGD, Average: -0.1482
  Sedoheptulose-1/7-Phosphate, Average: 0.1885
  Serine, Average: 0.02139
  Succinate Semialdehyde, Average: -0.438
  Succinate, Average: 0.1816
  TNVK, Average: -0.1213
  Threonine, Average: 0.6908
  Tryptophan, Average: -0.04867
  Tyrosine, Average: 0.1841
  UDP, Average: -0.5016
  UDP-N-acetyl-D-glucosamine, Average: -0.184
  UDP-glucose, Average: 0.0071
  UMP, Average: -0.08541
  Uracil, Average: -0.6376
  Valine, Average: 0.1675
  Xanthine, Average: -0.5471
  dADP, Average: -0.4329
  dATP, Average: 0.01926
  dCDP, Average: 0.5589
  dGMP, Average: -0.355
  dTMP, Average: 0.4667
  dTTP, Average: 0.06317
  dUMP, Average: 1.053
  myo-Inositol, Average: -0.254
  sn-Glycerol 3-Phosphate, Average: 1.275
  sn-glycero-3-Phospho-1-inositol, Average: 0.1242
Av 1hr, 6 μM
  1-3 (2-3)-diphopshateglycerate log2 ratio (+MMV007839/-MMV007839): 0.8283
  2-Hydroxyglutarate log2 ratio (+MMV007839/-MMV007839): -0.2432
  2-Ketoglutarate log2 ratio (+MMV007839/-MMV007839): -0.436
  3-Phosho-D-glycerate log2 ratio (+MMV007839/-MMV007839): 0.004248
  3-Phospho-serine log2 ratio (+MMV007839/-MMV007839): -0.2778
  4-Aminobutanoate log2 ratio (+MMV007839/-MMV007839): 1.193
  5-Phosphoribosyl-1-pyrophosphate log2 ratio (+MMV007839/-MMV007839): 0.3507
  ADP log2 ratio (+MMV007839/-MMV007839): -0.09347
  AMP log2 ratio (+MMV007839/-MMV007839): 0.1805
  ATLS log2 ratio (+MMV007839/-MMV007839): 0.06136
  ATP log2 ratio (+MMV007839/-MMV007839): -0.05715
  Acetyl-CoA log2 ratio (+MMV007839/-MMV007839): -0.4647
  Acetyl-L-alanine log2 ratio (+MMV007839/-MMV007839): 0.1907
  Adenine log2 ratio (+MMV007839/-MMV007839): -0.6208
  Arginine log2 ratio (+MMV007839/-MMV007839): 0.574
  Asparagine log2 ratio (+MMV007839/-MMV007839): 0.04802
  Aspartic Acid log2 ratio (+MMV007839/-MMV007839): 0.001665
  CDP log2 ratio (+MMV007839/-MMV007839): -0.01089
  CDP-ethanolamine log2 ratio (+MMV007839/-MMV007839): 0.2765
  CMP log2 ratio (+MMV007839/-MMV007839): 0.1684
  CTP log2 ratio (+MMV007839/-MMV007839): -0.2804
  Cholesteryl sulfate log2 ratio (+MMV007839/-MMV007839): -0.2972
  Citrate log2 ratio (+MMV007839/-MMV007839): -0.1229
  CoA log2 ratio (+MMV007839/-MMV007839): -0.4384
  Cyclic AMP log2 ratio (+MMV007839/-MMV007839): -0.8135
  Cytidine log2 ratio (+MMV007839/-MMV007839): -0.7749
  D-Glucono-1-4-lactone log2 ratio (+MMV007839/-MMV007839): 1.593
  DALT log2 ratio (+MMV007839/-MMV007839): -0.5028
  DEVG log2 ratio (+MMV007839/-MMV007839): 0.001555
  DGLA log2 ratio (+MMV007839/-MMV007839): -0.4525
  DLS log2 ratio (+MMV007839/-MMV007839): -0.423
  Deoxycytidine log2 ratio (+MMV007839/-MMV007839): 1.92
  Dihydroorotate log2 ratio (+MMV007839/-MMV007839): -0.5278
